Test results published in patent US20260248157A1, “COMPOSITIONS FOR REDUCING METHANE EMISSION” (MOOTRAL INNOVATIONS LIMITED, priority 2022, published 2026).
Where two headings read alike, the source gives them in different places.

System: Methanococcus maripaludis
Experiment: Inhibition of methane production by Methanococcus maripaludis culture (pressure drop after 24 h)
Format: cell-based
Conditions: for Fold increase of Compound X combined with bromoform as compared to Compound X alone: bromoform 0.12 μM; for inhibition at 25 µM: Compound X 25 μM alone; for inhibition at 100 µM: Compound X 100 μM alone
Description: For this experiment, bromoform was prepped at 100 mM by adding 8.75 μl bromoform to 991 μl DMSO. This was diluted 10× to generate a 10 mM solution and further diluted to generate 0.12 mM stock solutions. Compound X stock solutions were prepared in DMSO (except for tannic acid, which was diluted in deionized water), to achieve the desired stock solutions required for testing. The experiment was set up by adding 5 ml of M141 medium (https://www.dsmz.de/microorganisms/medium/pdf/DSMZ_Medium141.pdf) to a screw cap Hungate tube followed by the addition of 5 μl Compound X and/or 5 μl bromoform or 5/10 μl DMSO as follows: • Tube 1: DMSO (10 μl) • Tube 2: Bromoform (5 μl, 0.120 mM) (120 nM final)+5 μl DMSO • Tube 3: Compound X (5 μl stock solution)+5 μl DMSO • Tube 4: Bromoform (5 μl 0.120 mM) (120 nM final)+Compound X (5 μl stock solution)
The concentration of Bromoform was fixed at 0.12 μM.
After the addition of the test substances, 500 μl of an overnight M. maripaludis culture was added to each reaction tube. Each tube was gassed with 80% H2/20% CO2 to 240 kPa and incubated at 37° C. for 24 h.
After the 24 h incubation the pressure inside the tube was measured using a manometer. Given that 5 moles of H2/CO2 are consumed to generate 1 mole of CH4 the drop in pressure observed was used to calculate the amount of methane by the control and test reactions from which a percent inhibition was calculated.
Table 1 below summarises the range of concentrations and the fold increase in inhibition of Compound X when tested with bromoform relative to the level of inhibition for Compound X when tested alone.

[1] = Compound X 25 μM + bromoform 0.12 μM, 24 h
[2] = Methanococcus maripaludis, 24 h, read-out: Methane inhibition of Compound X as a sole compound (%)
[3] = Compound X 500 μM + bromoform 0.12 μM, 24 h
[4] = Compound X 1 mM + bromoform 0.12 μM, 24 h
[5] = Compound X 100 μM + bromoform 0.12 μM, 24 h

O=[N+]([O-])OCCCO [3-Nitrooxypropanol]
Methane inhibition in combination with Bromoform (%) (Compound X 0.78 μM-1.56 μM (range tested) + bromoform 0.12 μM, 24 h): 91.3% | Fold increase of Compound X combined with bromoform as compared to Compound X alone (Compound X 0.78 μM-1.56 μM (range tested)): 91.3 fold | inhibition (Methanococcus maripaludis, Compound X 0.78 μM-1.56 μM (range tested) alone, 24 h, read-out: Methane inhibition of Compound X as a sole compound (%)): 1%

CC(C)=CCc1c(O)cc(O)c2c1O[C@H](c1ccc(O)cc1)CC2=O [8-prenylnaringenin]
Methane inhibition in combination with Bromoform (%) (Compound X 12.5 μM + bromoform 0.12 μM, 24 h): 97.2% | Fold increase of Compound X combined with bromoform as compared to Compound X alone (Compound X 12.5 μM): 1.27 fold | inhibition at 12.5 µM (Methanococcus maripaludis, Compound X 12.5 μM alone, 24 h, read-out: Methane inhibition of Compound X as a sole compound (%)): 76.4%

CC(C)=CCc1cc2c(cc1O)O[C@H](c1ccc(O)cc1)CC2=O [Bavachin]
Methane inhibition in combination with Bromoform (%) [1]: 57.4% | Fold increase of Compound X combined with bromoform as compared to Compound X alone (Compound X 25 μM): 57.4 fold | inhibition at 25 µM [2]: 1%

Cc1ccc(C(C)C)cc1O [Carvacrol]
Methane inhibition in combination with Bromoform (%) [3]: 79.6% | Fold increase of Compound X combined with bromoform as compared to Compound X alone (Compound X 500 μM): 1.14 fold | inhibition at 500 µM [2]: 69.6%

O=CC=Cc1ccccc1 [Cinnamaldehyde]
Methane inhibition in combination with Bromoform (%) [4]: 91.7% | Fold increase of Compound X combined with bromoform as compared to Compound X alone (Compound X 1 mM): 91.7 fold | inhibition at 1000 µM (Methanococcus maripaludis, Compound X 1 mM alone, 24 h, read-out: Methane inhibition of Compound X as a sole compound (%)): 1%

CC(C)=CCCC(C)=CC=O [Citral]
Methane inhibition in combination with Bromoform (%) [3]: 96.7% | Fold increase of Compound X combined with bromoform as compared to Compound X alone (Compound X 500 μM): 7.29 fold | inhibition at 500 µM (Methanococcus maripaludis, Compound X 500 μM alone, 24 h, read-out: Methane inhibition of Compound X as a sole compound (%)): 13.3%

CC(C)=CCC/C(C)=C/Cc1cc(-c2coc3cc(O)ccc3c2=O)ccc1O [Corylifol A]
Methane inhibition in combination with Bromoform (%) (Compound X 3.125 μM + bromoform 0.12 μM, 24 h): 96.1% | Methane inhibition of Compound X as a sole compound (%) (Compound X 3.125 μM alone, 24 h): 1% | Fold increase of Compound X combined with bromoform as compared to Compound X alone (Compound X 3.125 μM): 96.1 fold

O=C(O)C(Br)Br [Dibromoacetic acid]
Methane inhibition in combination with Bromoform (%) (Compound X 200 μM + bromoform 0.12 μM, 24 h): 88.1% | Fold increase of Compound X combined with bromoform as compared to Compound X alone (Compound X 200 μM): 88.1 fold | inhibition at 200 µM [2]: 1%

ClC(Br)Br [Dibromochloromethane]
Methane inhibition in combination with Bromoform (%) (Compound X 0.195 μM + bromoform 0.12 μM, 24 h): 92.2% | Fold increase of Compound X combined with bromoform as compared to Compound X alone (Compound X 0.195 μM): 92.2 fold | inhibition at 0.195 µM [2]: 1%

CSSC [Dimethyl disulfide]
Methane inhibition in combination with Bromoform (%) [4]: 43.5% | Fold increase of Compound X combined with bromoform as compared to Compound X alone (Compound X 1 mM): 43.5 fold | inhibition at 1000 µM [2]: 1%

CC(C)=CCC[C@](C)(O[C@@H]1O[C@H](CO[C@@H]2OC[C@H](O)[C@H](O)[C@H]2O)[C@@H](O)[C@H](O)[C@H]1O)[C@H]1CC[C@]2(C)[C@@H]1[C@H](O)C[C@@H]1[C@@]3(C)CC[C@H](O[C@@H]4O[C@H](CO)[C@@H](O)[C@H](O)[C@H]4O[C@@H]4O[C@H](CO)[C@@H](O)[C@H](O)[C@H]4O)C(C)(C)[C@@H]3CC[C@]12C [Ginsenoside Rb2]
Methane inhibition in combination with Bromoform (%) (Compound X 20 μM + bromoform 0.12 μM, 24 h): 66.9% | Methane inhibition of Compound X as a sole compound (%) (Compound X 20 μM alone, 24 h): 44.7% | Fold increase of Compound X combined with bromoform as compared to Compound X alone (Compound X 20 μM): 1.42 fold

CC(C)=CCc1c(O)ccc(C(=O)/C=C/c2ccc(O)cc2)c1O [Isobavachalcone]
Methane inhibition in combination with Bromoform (%) (Compound X 3.125 μM-6.25 μM (range tested) + bromoform 0.12 μM, 24 h): 93.4% | Fold increase of Compound X combined with bromoform as compared to Compound X alone (Compound X 3.125 μM-6.25 μM (range tested)): 1.12 fold | inhibition (Methanococcus maripaludis, Compound X 3.125 μM-6.25 μM (range tested) alone, 24 h, read-out: Methane inhibition of Compound X as a sole compound (%)): 83.4%

CC(C)=CCc1c(-c2ccc(O)cc2O)oc2c3c(cc(O)c2c1=O)OC(C)(C)C=C3 [Morusin]
Methane inhibition in combination with Bromoform (%) (Compound X 1.25 μM-10 μM (range tested) + bromoform 0.12 μM, 24 h): 96.7% | Fold increase of Compound X combined with bromoform as compared to Compound X alone (Compound X 1.25 μM-10 μM (range tested)): 2.16 fold

O=c1c(O)c(-c2ccc(O)c(O)c2)oc2cc(O)cc(O)c12 [Quercetin]
Methane inhibition in combination with Bromoform (%) (Compound X 50 μM-100 μM (range tested) + bromoform 0.12 μM, 24 h): 91.2% | Fold increase of Compound X combined with bromoform as compared to Compound X alone (Compound X 50 μM-100 μM (range tested)): 1.21 fold

C[C@H]1O[C@@H](O[C@H]2CC[C@@]3(C)[C@@H](CC[C@]4(C)[C@@H]3C=CC3=C5CC(C)(C)CC[C@]5(CO)[C@H](O)C[C@]34C)[C@]2(C)CO)[C@H](O)[C@@H](O[C@@H]2O[C@H](CO)[C@@H](O)[C@H](O)[C@H]2O)[C@H]1O [Saikosaponin b2]
Methane inhibition in combination with Bromoform (%) (Compound X 10 μM + bromoform 0.12 μM, 24 h): 55.6% | Methane inhibition of Compound X as a sole compound (%) (Compound X 10 μM alone, 24 h): 1% | Fold increase of Compound X combined with bromoform as compared to Compound X alone (Compound X 10 μM): 55.6 fold

C=C[C@](C)(O)CC[C@@H]1[C@@]2(C)CCCC(C)(C)[C@@H]2CC[C@@]1(C)O [Sclareol]
Methane inhibition in combination with Bromoform (%) [1]: 61.2% | Fold increase of Compound X combined with bromoform as compared to Compound X alone (Compound X 25 μM): 56 fold | inhibition at 25 µM [2]: 1.1%

O=C(OC[C@H]1O[C@@H](OC(=O)c2cc(O)c(O)c(OC(=O)c3cc(O)c(O)c(O)c3)c2)[C@H](OC(=O)c2cc(O)c(O)c(OC(=O)c3cc(O)c(O)c(O)c3)c2)[C@@H](OC(=O)c2cc(O)c(O)c(OC(=O)c3cc(O)c(O)c(O)c3)c2)[C@@H]1OC(=O)c1cc(O)c(O)c(OC(=O)c2cc(O)c(O)c(O)c2)c1)c1cc(O)c(O)c(OC(=O)c2cc(O)c(O)c(O)c2)c1 [Tannic acid]
Methane inhibition in combination with Bromoform (%) [5]: 56.1% | Fold increase of Compound X combined with bromoform as compared to Compound X alone (Compound X 100 μM): 1.16 fold | inhibition at 100 µM [2]: 48.3%

C[C@H]1[C@H](C)CC[C@]2(C(=O)O)CC[C@]3(C)C(=CC[C@@H]4[C@@]5(C)CC[C@H](O)C(C)(C)[C@@H]5CC[C@]43C)[C@H]12 [Ursolic Acid]
Methane inhibition in combination with Bromoform (%) [5]: 85.2% | Fold increase of Compound X combined with bromoform as compared to Compound X alone (Compound X 100 μM): 85.2 fold | inhibition at 100 µM [2]: 1%

COc1cc(O)c(CC=C(C)C)c(O)c1C(=O)/C=C/c1ccc(O)cc1 [Xanthohumol]
Methane inhibition in combination with Bromoform (%) (Compound X 6.25 μM-12.5 μM (range tested) + bromoform 0.12 μM, 24 h): 95.1% | Fold increase of Compound X combined with bromoform as compared to Compound X alone (Compound X 6.25 μM-12.5 μM (range tested)): 1.5 fold | inhibition (Methanococcus maripaludis, Compound X 6.25 μM-12.5 μM (range tested) alone, 24 h, read-out: Methane inhibition of Compound X as a sole compound (%)): 63.6%

Bavachinin
Methane inhibition in combination with Bromoform (%) (Compound X 12.5 μM-100 μM (range tested) + bromoform 0.12 μM, 24 h): 97.2% | Methane inhibition of Compound X as a sole compound (%) (Compound X 12.5 μM-100 μM (range tested) alone, 24 h): 43% | Fold increase of Compound X combined with bromoform as compared to Compound X alone (Compound X 12.5 μM-100 μM (range tested)): 2.26 fold
